Key:
Enkephalinase = molecular target: T1, Enkephalinase (Rattus norvegicus, UniProt P07861); assay: Enkephalinase inhibition, fluorometric, substrate dansyl-D-AlaGly(p-nitro)PheGly; assay type: biochemical; conditions: 50 mM HEPES, pH 7.4, 25° C., 12 μM substrate; read-out: ENK, Ki
T1 construct: Enkephalinase is partially purified from rat kidney; from tissue; host or cells: rat kidney (microvilli fraction; Triton X-100 extract or proteolytic solubilisation, then Mono Q FPLC)
T1 sequence (P07861 1-750): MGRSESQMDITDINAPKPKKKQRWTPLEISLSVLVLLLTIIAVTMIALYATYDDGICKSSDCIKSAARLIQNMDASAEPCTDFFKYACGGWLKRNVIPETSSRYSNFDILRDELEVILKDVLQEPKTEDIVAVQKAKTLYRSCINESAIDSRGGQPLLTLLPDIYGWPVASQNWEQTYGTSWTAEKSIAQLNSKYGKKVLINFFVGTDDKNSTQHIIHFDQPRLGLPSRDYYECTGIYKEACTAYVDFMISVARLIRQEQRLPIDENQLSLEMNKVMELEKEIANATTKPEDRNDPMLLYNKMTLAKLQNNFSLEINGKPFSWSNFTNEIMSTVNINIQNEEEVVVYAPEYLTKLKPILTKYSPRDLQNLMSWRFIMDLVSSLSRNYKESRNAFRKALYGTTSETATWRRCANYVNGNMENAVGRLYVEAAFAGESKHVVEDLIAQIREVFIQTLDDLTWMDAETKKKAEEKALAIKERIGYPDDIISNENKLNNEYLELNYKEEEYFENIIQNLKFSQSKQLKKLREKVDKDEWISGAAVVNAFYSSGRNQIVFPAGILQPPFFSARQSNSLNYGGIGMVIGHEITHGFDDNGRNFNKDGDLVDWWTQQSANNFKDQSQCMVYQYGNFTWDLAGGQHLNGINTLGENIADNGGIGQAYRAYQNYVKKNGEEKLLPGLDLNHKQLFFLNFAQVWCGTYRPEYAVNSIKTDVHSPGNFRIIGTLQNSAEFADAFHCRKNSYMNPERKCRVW
Text: Enkephalinase is partially purified from rat kidney. The enzyme is extracted from the microvilli fraction by using Triton X-100 according to the method of Malfroy and Schwartz [J. Biol. Chem. 259, 14365-14370 (1984)] or by using a proteolytic treatment according to the method of Almenoff and Orlowski [Biochem. 22 590-599 (1983)]. The enzyme is further purified by anio exchange chromatography (Mono Q™ column, Pharmacia) using a Pharmacia FPLC system. The enzyme activity may be measured by the fluorometric methods of Florentin et al. [Anal. Biochem. 141, 62-69 (1984 ) ] or of Almenoff and Orlowski [J. Neurochemistry 42,151-157 (1984)]. […] The substrate (and inhibitor) is added from a concentrated stock solution in DMSO (up to 0.1 mL DMSO final volume). The enzyme in a small volume (approximately 0.1 μg of FPLC purified protein) is added to initiate the reaction and the rate of fluorecense increase is recorded continuously using a fluorometer (excitation at 339 nm, emission at 562 nm).
(§1) The results of the analysis of enzymatic activity as described in Table 1 indicate that the compounds of the present invention are inhibitors of enkephalinase as well as inhibitors of ACE.

ACE = ACE (Homo sapiens, UniProt P12821); assay: ACE inhibition, spectrophotometric substrate; assay type: biochemical
ACE, sequence (P12821 30-1306, species assumed): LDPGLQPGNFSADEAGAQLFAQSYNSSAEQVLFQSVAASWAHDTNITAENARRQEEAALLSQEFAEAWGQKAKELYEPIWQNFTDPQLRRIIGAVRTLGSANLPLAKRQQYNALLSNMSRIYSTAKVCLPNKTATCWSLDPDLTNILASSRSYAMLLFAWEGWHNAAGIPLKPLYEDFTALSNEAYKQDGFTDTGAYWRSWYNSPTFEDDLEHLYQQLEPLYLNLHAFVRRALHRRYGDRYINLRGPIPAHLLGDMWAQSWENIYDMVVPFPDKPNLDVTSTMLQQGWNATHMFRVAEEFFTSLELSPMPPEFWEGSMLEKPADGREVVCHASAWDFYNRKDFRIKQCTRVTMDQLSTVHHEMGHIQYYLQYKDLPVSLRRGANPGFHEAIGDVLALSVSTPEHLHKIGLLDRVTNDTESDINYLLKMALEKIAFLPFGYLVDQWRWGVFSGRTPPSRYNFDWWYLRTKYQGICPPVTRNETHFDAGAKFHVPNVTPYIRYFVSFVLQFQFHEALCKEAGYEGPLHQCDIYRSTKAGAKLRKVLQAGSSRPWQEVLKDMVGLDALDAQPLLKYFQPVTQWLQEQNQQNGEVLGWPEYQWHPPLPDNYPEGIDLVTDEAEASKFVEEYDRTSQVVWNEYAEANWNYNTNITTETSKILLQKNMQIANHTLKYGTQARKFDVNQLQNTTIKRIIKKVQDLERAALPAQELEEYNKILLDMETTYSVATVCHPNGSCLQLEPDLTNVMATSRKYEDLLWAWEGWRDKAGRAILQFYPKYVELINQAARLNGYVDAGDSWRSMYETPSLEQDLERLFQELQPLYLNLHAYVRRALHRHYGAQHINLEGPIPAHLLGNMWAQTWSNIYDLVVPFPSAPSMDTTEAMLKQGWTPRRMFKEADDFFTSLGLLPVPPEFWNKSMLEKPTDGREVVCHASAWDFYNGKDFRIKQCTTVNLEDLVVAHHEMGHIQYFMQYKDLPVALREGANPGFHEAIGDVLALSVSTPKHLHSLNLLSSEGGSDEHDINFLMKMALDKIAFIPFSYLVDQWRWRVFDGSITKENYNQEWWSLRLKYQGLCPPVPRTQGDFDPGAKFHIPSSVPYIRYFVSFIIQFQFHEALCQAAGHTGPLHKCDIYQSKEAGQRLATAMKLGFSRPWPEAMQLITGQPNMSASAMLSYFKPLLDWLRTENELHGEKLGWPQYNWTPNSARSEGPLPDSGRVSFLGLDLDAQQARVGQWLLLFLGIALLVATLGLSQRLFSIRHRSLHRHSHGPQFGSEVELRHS
Text: The enzymatic activity of ACE is monitored using the spectrophotometric substrate described by Holmquist et al. [Anal. Biochem. 95, 540-548 (1979)]and the buffer system described by Ryan [Methods of Enzymatic Analysis, 3rd ed., H. U. Bergmeyer, editor; vol. V, Verlag Chemie, Weinheim, 1983, pp. 20-34].
as §1

myointimal proliferation = conditions: after vascular injury; Davis et al. 1992; cited from earlier work

Structure (SMILES) | Ki (Enkephalinase) [nM] | Ki (ACE) [nM] | myointimal proliferation (myointimal proliferation)
CCOC(=O)[C@H](CCSC)NC(=O)[C@@H](CSC(C)=O)Cc1ccccc1C [SCH42495] |  |  | prevent myointimal proliferation after vascular injury
O=C(O)[C@@H]1CCC[C@@H]2c3ccccc3C[C@H](NC(=O)C3(CS)Cc4ccccc4C3)C(=O)N21 [100,346, [4S-[4α, 7α(R*), 12bβ]]-7-[(2-Mercaptomethyl-2-oxoindan)methylamino]-1,2,3,4,6,7,8,12b-octahydro-6-oxopyrido[2,1-a][2]benzazepine-4-carboxylic acid] | < 0.2 | < 500 | 
O=C(O)[C@@H]1CCC[C@@H]2c3ccccc3C[C@H](NC(=O)C3(S)Cc4ccccc4C3)C(=O)N21 [102,708, [4S-[4α, 7α(R*), 12bβ]]-7-[(2-Thio-2-oxoindan)methylamino]-1,2,3,4,6,7,8,12b-octahydro-6-oxopyrido[2,1-a][2]benzazepine-4-carboxylic acid] | < 0.2 | < 45 | 

More lines, main results first:

Ki (Enkephalinase) [nM] | Ki (ACE) [nM] | Structure (SMILES) | myointimal proliferation (myointimal proliferation)
0.8 | > 250 | O=C(O)[C@@H]1CCC[C@@H]2c3ccccc3C[C@H](NC(=O)C3(CCS)Cc4ccccc4C3)C(=O)N21 [100,273, [4S-[4α, 7α(R*), 12bβ]]-7-[(2-(2-mercaptoethyl)-2-oxoindan)methylamino]1,2,3,4,6,7,8,12b-octahydro-6-oxopyrido[2,1-a][2]benzazepine-4-carboxylic acid] | 
< 0.2 | < 7 | O=C(O)[C@@H]1CCC[C@@H]2c3ccccc3C[C@H](NC(=O)C3(S)CCCC3)C(=O)N21 [102,769, [4S-[4α, 7α(R*), 12bβ]]-7-[(1-Thio-1-oxocyclopentane)methylamino]-1,2,3,4,6,7,8,12b-octahydro-6-oxopyrido[2,1-a][2]benzazepine-4-carboxylic acid] | 
4 | > 7 | CC(C)(S)C(=O)N[C@H]1Cc2ccccc2[C@H]2CCC[C@@H](C(=O)O)N2C1=O [101,069, [4S-[4α, 7α(R*), 12bβ]]-7-[(2-Thio-1-oxo-2-methyl)-2-propylamino]-1,2,3,4,6,7,8,12b-octahydro-6-oxopyrido[2,1-a][2]benzazepine-4-carboxylic acid] | 

Reference: patent US5428158A, “2-substituted indane-2-mercaptoacetylamide derivatives useful as inhibitors of enkephalinase and ace” (Merrell Dow Pharmaceuticals Inc., priority 1993, dated 1995)
